Reference: article PMC10296281 (2023)

Key:
Experiment in all cases: bio-layer interferometry, 1:1 local fit
[1] = test system: Sequence 1 (original aptamer, 1 to 80) (DNA, aptamer) AGCAGCACAGAGGTCAGATGACTTCAGTGAGTTGTCCCACGGTCGGCGAGTCGGTGGTAGCCTATGCGTGCTACCGTGAA; conditions: 100 mM NaCl, 5 mM KCl, 2 mM MgCl2, 1 mM CaCl2; 20 mM Tris-HCl, 0.02 Tween 20, pH 7.6; R2 0.993
[2] = test system: Sequence 2 (6 to 80) (DNA, aptamer) CACAGAGGTCAGATGACTTCAGTGAGTTGTCCCACGGTCGGCGAGTCGGTGGTAGCCTATGCGTGCTACCGTGAA; conditions: 100 mM NaCl, 5 mM KCl, 2 mM MgCl2, 1 mM CaCl2; 20 mM Tris-HCl, 0.02 Tween 20, pH 7.6; R2 0.973
[3] = test system: Sequence 3 (1 to 75) (DNA, aptamer) AGCAGCACAGAGGTCAGATGACTTCAGTGAGTTGTCCCACGGTCGGCGAGTCGGTGGTAGCCTATGCGTGCTACC; conditions: 100 mM NaCl, 5 mM KCl, 2 mM MgCl2, 1 mM CaCl2; 20 mM Tris-HCl, 0.02 Tween 20, pH 7.6; R2 0.946
[4] = test system: Sequence 4 (6 to 75) (DNA, aptamer) CACAGAGGTCAGATGACTTCAGTGAGTTGTCCCACGGTCGGCGAGTCGGTGGTAGCCTATGCGTGCTACC; conditions: 100 mM NaCl, 5 mM KCl, 2 mM MgCl2, 1 mM CaCl2; 20 mM Tris-HCl, 0.02 Tween 20, pH 7.6; R2 0.945
[5] = test system: Sequence 5 (21 to 80) (DNA, aptamer) ACTTCAGTGAGTTGTCCCACGGTCGGCGAGTCGGTGGTAGCCTATGCGTGCTACCGTGAA; conditions: 100 mM NaCl, 5 mM KCl, 2 mM MgCl2, 1 mM CaCl2; 20 mM Tris-HCl, 0.02 Tween 20, pH 7.6; R2 0.924
[6] = test system: Sequence 6 (1 to 60) (DNA, aptamer) AGCAGCACAGAGGTCAGATGACTTCAGTGAGTTGTCCCACGGTCGGCGAGTCGGTGGTAG; conditions: 100 mM NaCl, 5 mM KCl, 2 mM MgCl2, 1 mM CaCl2; 20 mM Tris-HCl, 0.02 Tween 20, pH 7.6; R2 0.905
[7] = test system: Sequence 7 (21 to 60) (DNA, aptamer) ACTTCAGTGAGTTGTCCCACGGTCGGCGAGTCGGTGGTAG; conditions: 100 mM NaCl, 5 mM KCl, 2 mM MgCl2, 1 mM CaCl2; 20 mM Tris-HCl, 0.02 Tween 20, pH 7.6; R2 0.882
[8] = test system: Sequence 8 (31 to 80) (DNA, aptamer) GTTGTCCCACGGTCGGCGAGTCGGTGGTAGCCTATGCGTGCTACCGTGAA; conditions: 100 mM NaCl, 5 mM KCl, 2 mM MgCl2, 1 mM CaCl2; 20 mM Tris-HCl, 0.02 Tween 20, pH 7.6; R2 0.853
[9] = test system: Sequence 9 (1 to 50) (DNA, aptamer) AGCAGCACAGAGGTCAGATGACTTCAGTGAGTTGTCCCACGGTCGGCGAG; conditions: 100 mM NaCl, 5 mM KCl, 2 mM MgCl2, 1 mM CaCl2; 20 mM Tris-HCl, 0.02 Tween 20, pH 7.6; R2 0.914
[10] = test system: Sequence 10 (31 to 50) (DNA, aptamer) GTTGTCCCACGGTCGGCGAG; conditions: 100 mM NaCl, 5 mM KCl, 2 mM MgCl2, 1 mM CaCl2; 20 mM Tris-HCl, 0.02 Tween 20, pH 7.6; R2 0.699 (poor fit)
[11] = test system: Sequence 11 (41 to 80) (DNA, aptamer) GGTCGGCGAGTCGGTGGTAGCCTATGCGTGCTACCGTGAA; conditions: 100 mM NaCl, 5 mM KCl, 2 mM MgCl2, 1 mM CaCl2; 20 mM Tris-HCl, 0.02 Tween 20, pH 7.6; R2 0.757

- Kd [1]: 704 nM
- Kd [2]: 877 nM
- Kd [3]: 645 nM
- Kd [4]: 661 nM
- Kd [5]: 1712 nM
- Kd [6]: 4014 nM
- Kd [7]: 370 nM
- Kd [8]: 153 nM
- Kd [9]: 92 nM
- Kd [10]: 3109 nM
- Kd [11]: 426 nM
Compound: O=C(N[C@H](CO)[C@H](O)c1ccc([N+](=O)[O-])cc1)C(Cl)Cl
